{"source": "patent US6764855B2", "about": "“Fluorescent hplc assay for 20-hete and other p-450 metabolites of arachidonic acid” (MCW Research Foundation, priority 2000, dated 2004)", "key": {"[1]": {"tested_on": "urinary excretion of 20-HETE", "assay": "Effect of an irreversible P-450 inhibitor on the urinary excretion of 20-HETE", "assay_type": "in vivo, rats", "details": "ABT 50 mg/kg ip, second 50 mg/kg injection 12 h later, 24-h urine vs control", "protocol": "To label the fatty acids, we resuspended samples, which were extracted and dried under argon, in 20 μl of acetonitrile containing 36.4 mM 2-(2,3-naphthalimino)ethyl trifluoromethanesulfonate. N,N-diisopropylethylamine (10 μl) was added to catalyze the reaction. The sample was reacted for 30 min at room temperature. The reactions were dried down under argon, resuspended in 1 ml of 20% acetonitrile:water, and applied to a Sep-Pak Vac column. The column was washed with 6 ml of 50% acetonitrile:water solution to remove unreacted dye and eluted with 500 μl of ethyl acetate. The eluent was dried under argon, and the samples were resuspended in 100 μl of the IPLC mobile phase (methanol:water:acetic acid, 82:18:0.1 vol/vol/vol). […] Fluorescence intensity was continuously monitored using a fluorescence detector (model L-7480; Hitachi, Naperville, Ill.) at a medium gain sensitivity. The amount of 20-HETE in the sample was determined by comparing the area of the 20-HETE peak to that of an internal standard. […]\nSHR and normotensive Sprague-Dawley rats were placed in special metabolic cages (model 650-00350; Nalgene, Rochester, N.Y.) that efficiently separated urine from food and feces and were allowed to equilibrate for 5 days. […] The radioactive products were monitored using a radioactive flow detector (model 120; Radiomatic Instrument, Tampa, Fla.)."}, "P-4504A enzyme": {"tested_on": "P-4504A enzyme", "assay": "P-4504A enzyme activity (20-HETE production) in renal cortical microsomes from treated rats", "assay_type": "in vivo", "text": "SHR and normotensive Sprague-Dawley rats were placed in special metabolic cages (model 650-00350; Nalgene, Rochester, N.Y.) that efficiently separated urine from food and feces and were allowed to equilibrate for 5 days. After 5 days, the food was withdrawn from the rat to prevent contamination of the urine sample and a 24-h control urine sample was collected on dry ice. After the control sample was collected, food was returned to the rats, and after a 2-day recovery period, the rats received an intraperitoneal injection of ABT (50 mg/kg) followed by a second (50 mg/kg) injection 12 h later. Two hours after administration of the first dose of ABT, food was withdrawn and a 24-h experimental urine sample was collected on dry ice. After the urine was collected, the rats were killed with pentobarbital sodium (100 mg/kg ip), and the kidneys were collected. The renal cortex was separated from the renal medulla, frozen in liquid nitrogen, and stored overnight for measurement of the renal metabolism of AA. Briefly, the renal cortex was homogenized in a 10 mM potassium phosphate buffer (pH 7.7) containing 250 mM sucrose, 1 mM EDTA, and 10 mM magnesium chloride, and microsomes were prepared by differential centrifugation. […] The radioactive products were monitored using a radioactive flow detector (model 120; Radiomatic Instrument, Tampa, Fla.)."}}, "data": [{"compound": "Nn1nnc2ccccc21", "note": "[ABT, 1-aminobenzotriazole]", "values": [{"measurement": "fall in urinary excretion of 20-HETE after administration of ABT", "setting": "[1]; SHR (n=4)", "result": "65±10", "unit": "%"}, {"measurement": "fall in urinary excretion of 20-HETE after administration of ABT", "setting": "[1]; Sprague-Dawley rats (n=5)", "result": "74±9", "unit": "%"}, {"measurement": "20-HETE production by renal cortical microsomes", "setting": "P-4504A enzyme; microsomes from kidneys of ABT-treated SHR (n=4), vehicle 459±192", "result": "12±4", "unit": "pmol●min^−1●mg^−1"}, {"measurement": "20-HETE production by renal cortical microsomes", "setting": "P-4504A enzyme; microsomes from kidneys of ABT-treated Sprague-Dawley rats (n=5), vehicle 324±25", "result": "25±3", "unit": "pmol●min^−1●mg^−1"}]}]}
